Results on five compounds are retold here after patent US10881636B2, “Dihydroartemisinin-steroid conjugate and preparation method and application thereof” (YUNBAIYAO ZHENGWU SCIENCE AND TECHNOLOGY (SHANGHAI) CO., …, priority 2017, dated 2021).

Data set [1] is described as follows: Cytotoxicity on normal cells, CCK-8 assay. It is filed as cell-based. Conditions: African green monkey. The protocol:
(§1) African green monkey kidney cells-Vero cells (CCL-81) were used as normal cells to evaluate the cytotoxic effects of the compounds. Under the intervention of such compounds, the living cells can be stained using a cell proliferation-cytotoxicity assay kit Cell Counting Kit-8 (CCK-8 solution), and the OD value was measured to reflect the survival and growth state of the cells, that is, the cell survival rate (%) and the cell growth inhibition rate (%).
(§2) The culture solution containing 10% FBS was regarded as a complete medium. […] After all the cells were cultured to logarithmic growth phase, the tests were performed as follows.
(§3) The adherent cells were digested by pancreatin and suspended to directly collect cells. The cell suspension was centrifuged, and after counted, the cells were seeded in a transparent 96-well culture plate and adjusted to 5×10^3 cells/100 μL/well with respective complete mediums. At the same time, each plate was provided with blank wells without cells and samples and control wells with cells but without samples. The 96-well culture plates were then cultured overnight in a 37° C., 5% CO2 incubator. The test compounds were added at 50 μL/well on the next day, and respective complete mediums were added at the same amount. […] While for the control wells and blank wells, complete mediums rather than the compound samples were added, where the complete culture medium was also added at 100 μL/well. […] 2 h before the end of the incubation, the culture medium was removed, and complete culture medium containing 10% CCK-8 solution was added at 100 μL/well.
(§4) The CC50 was calculated according to the survival rate (%) of Vero cells to reflect the cytotoxic effect of the compounds. The IC50 was calculated according to the growth inhibition (%) of the tumor cells to reflect the antitumor activity of the samples.

For data set [2], the system named is 786-O cells (CRL-1932). Nature of the data set: Tumor cell growth inhibition, CCK-8 assay. It is filed as cell-based. Particulars: Homo sapiens, 786-0; 48 h, CCK-8, growth inhibition. As for the experimental part:
as §1, §2, §3, §4

Data set [3] concerns HeLa cells (CCL-2). Kind of data set: Tumor cell growth inhibition, CCK-8 assay. It is filed as cell-based. Conditions: Homo sapiens, 48 h, CCK-8, growth inhibition. As for the experimental part: as §1, §2, §3, §4
The subject of data set [4] is Jurkat cells (TIB-152). Kind of data set: Tumor cell growth inhibition, CCK-8 assay. It is filed as cell-based. Conditions: Homo sapiens, 48 h, CCK-8, growth inhibition. As for the experimental part:
as §1, §2, §3, §4

The subject of data set [5] is MCF7 cells (HTB-22). Nature of the data set: Tumor cell growth inhibition, CCK-8 assay. It is filed as cell-based. Particulars: Homo sapiens, 48 h, CCK-8, growth inhibition. The protocol:
as §1, §2, §3, §4

Data set [6] deals with PC-3 cells (CRL-1435). Kind of data set: Tumor cell growth inhibition, CCK-8 assay. Particulars: Homo sapiens, 48 h, CCK-8, growth inhibition, read-out: PC3 IC50. It is filed as cell-based. As for the experimental part: as §1, §2, §3, §4
Data set [7] relates to A549. Kind of data set: Tumor cell growth inhibition. It is filed as cell-based. Particulars: Homo sapiens. As for the experimental part: as §3, §4
Data set [8] deals with DU-145. Nature of the data set: Inhibitory effects on various tumor cells. Conditions: Homo sapiens; DU-145 cells. It is filed as cell-based. As for the experimental part: as §3, §4
In data set [9] the test system is HC7116. Kind of data set: Inhibitory effects on various tumor cells. It is filed as cell-based. As for the experimental part:
as §3, §4

The test system of data set [10] is HEPG-2. Kind of data set: Inhibitory effects on various tumor cells. It is filed as cell-based. Particulars: Homo sapiens, HepG2; HEPG-2 cells. The protocol: as §3, §4
Data set [11] has as its system K562. Kind of data set: Inhibitory effects on various tumor cells. It is filed as cell-based. Conditions: Homo sapiens. The protocol:
as §3, §4

The subject of data set [12] is Kasumi. Kind of data set: Inhibitory effects on various tumor cells. It is filed as cell-based. As for the experimental part:
as §3, §4

The subject of data set [13] is NB4. Kind of data set: Inhibitory effects on various tumor cells. Conditions: Homo sapiens, NB-4. It is filed as cell-based. The protocol:
as §3, §4

The test system of data set [14] is OV-90. Nature of the data set: Inhibitory effects on various tumor cells. It is filed as cell-based. Particulars: Homo sapiens; OV-90 cells. As for the experimental part: as §3, §4
In data set [15] the test system is RCC-4. Nature of the data set: Inhibitory effects on various tumor cells. It is filed as cell-based. Conditions: Homo sapiens, RCC4; RCC-4 cells. The protocol: as §3, §4
The test system of data set [16] is RCC4 vhl. Nature of the data set: Inhibitory effects on various tumor cells. It is filed as cell-based. Conditions: Homo sapiens. As for the experimental part:
as §3, §4

For data set [17], the system named is SW1990. Kind of data set: Inhibitory effects on various tumor cells. It is filed as cell-based. Conditions: Homo sapiens. The protocol:
as §3, §4

For data set [18], the system named is U2OS. Kind of data set: Inhibitory effects on various tumor cells. It is filed as cell-based. Particulars: Homo sapiens. As for the experimental part: as §3, §4
For data set [19], the system named is U87. Kind of data set: Inhibitory effects on various tumor cells. It is filed as cell-based. Conditions: Homo sapiens, U-87 MG. The protocol:
as §3, §4

Data set [20] concerns human non-small cell lung cancer cells A549. Nature of the data set: Xenograft model of human lung cancer cell A549. Conditions: nude mice, 10 mg/kg intraperitoneal, 28 days; for deaths during treatment: JZ-02 group 9 mice, paclitaxel group 5 mice; for tumor inhibition rate: from tumor tissue weight.
Text: 23 BALB/c nude mice, weighing 18-22 g and aged 2-4 weeks, were used in the experiment.
[21] abbreviates: Vero normal cells, 48 h, CCK-8, cell survival rate, read-out: Vero CC50.

Like-named read-outs stand apart in the source and are kept apart here.

On to `C[C@H]1[C@@H](O)O[C@@H]2O[C@@]3(C)CC[C@H]4[C@H](C)CC[C@@H]1[C@@]24OO3` [Dihydroartemisinin], for which, in data set [1], it took 5880 nM to reach half-maximal cytotoxicity (CC50 at 48 h). For the same compound, the IC50 came out at 1100 nM in data set [2]; 1660 nM in data set [3]; 100000 nM in [4]; 100000 nM in [5]; 2020 nM in data set [6]; 2960 nM in data set [7].
On to `C[C@H]1C(O[C@@H]2CC[C@@]3(C)C(C2)C[C@H](O)C2C3CC[C@@]3(C)C2CC[C@@H]3[C@H](C)CCC(=O)O)OC2OC3(C)CCC4[C@H](C)CCC1[C@@]24OO3` (stereo partly drawn) [JZ-2], for which the CC50 at 48 h in data set [1] (setting [21]) was found to be 7810 nM. Besides, the IC50 in data set [2] amounted to 60 nM; in [3], 40 nM; in [4], 240 nM; in data set [5] it was 3390 nM; in data set [6] it was 260 nM; in [7], 20 nM. Further, the IC50 in [8] came out at 625 nM; in data set [9], 157 nM; in data set [10], 500 nM; in data set [11] it was 157 nM; in [12] it was 157 nM; in [13] it was 157 nM. Also, the IC50 in data set [14] amounted to 157 nM; in data set [15], 2500 nM; in data set [16], 30000 nM; in data set [17] it was 517 nM; in [18], 357 nM; in [19], 517 nM. Further, the “tumor growth (tumor growth curve, FIG. 1)” value in [20] is given as “significantly inhibit the tumor growth”. For the same compound, the deaths during treatment result in data set [20] is reported as “no death”. For the same compound, in data set [20], the tumor inhibition rate was 58%.
For `C[C@H]1C(O[C@@H]2CC[C@@]3(C)C(C2)C[C@@H](O)C2C3CC[C@@]3(C)C2CC[C@@H]3[C@H](C)CCC(=O)O)OC2O[C@@]3(C)CCC4[C@H](C)CCC1[C@@]24OO3` (stereo partly drawn) [JZ-4], in data set [1] (setting [21]), the half-maximal cytotoxic concentration (CC50) at 48 h was 100000 nM. The IC50 is 100000 nM in data set [2]; 25000 nM in [3]; 32000 nM in [4]; 35000 nM in [5]; 25000 nM in [6]; 2400 nM in data set [7].
In data set [1], `CC(C)[C@@H](C)/C=C/[C@@H](C)[C@H]1CCC2C3=CC=C4CC(OC5OC6OC7(C)CCC8[C@H](C)CCC([C@H]5C)[C@@]68OO7)CC[C@]4(C)C3CC[C@@]21C` (stereo partly drawn) [JZ-6] came in with a CC50 at 48 h of 100000 nM. Also, the IC50 in data set [2] was 100000 nM; in [3], 100000 nM; in data set [4] it was 34000 nM; in data set [5] it was 45000 nM; in [6] it was 100000 nM; in data set [7], 6330 nM.
In data set [1], `CC(=O)O[C@H]1C(=O)[C@@]2(C)[C@H]([C@H](OC(=O)c3ccccc3)[C@]3(O)C[C@H](OC(=O)[C@H](O)[C@@H](NC(=O)c4ccccc4)c4ccccc4)C(C)=C1C3(C)C)[C@]1(OC(C)=O)CO[C@@H]1C[C@@H]2O` [Taxol, paclitaxel, reference compound] registered a CC50 at 48 h of 1500 nM. The IC50 in data set [2] worked out at 6 nM; in [3] it was 6 nM; in data set [4], 30 nM; in data set [5] it was 10 nM; in data set [6], 6 nM; in [7], 6 nM. The half-inhibitory concentration (IC50) in data set [8], in data set [9], in data set [10], in [11], in data set [12] and in [13] was 10 nM in each case. In addition, the IC50 in data set [14] was 10 nM; in data set [15], 10000 nM; in data set [16], 30000 nM; in data set [17], 10 nM; in data set [18], 10 nM. The deaths during treatment result in data set [20] is on record as “one death”. This compound also yielded a tumor inhibition rate in data set [20] of 52%.
